{"source": "patent US10278869B2", "about": "“Apparatus for aspirating, irrigating and cleansing wounds” (SMITH & NEPHEW PLC, priority 2002, dated 2019)", "origin": "cited, not measured here", "details": "EP standard, CRS", "data": [{"substance": "gentamycin sulphate", "values": [{"measurement": "activity", "result": 616, "unit": "IU mg^−1"}]}]}
